Source: patent US12012401B2, “Process for preparing N-(5-(3-(7-(3-fluorophenyl)-3H-imidazo[4,5-c]pyridin-2-yl)-1H-indazol-5-yl)pyridin-3-yl)-3-methylbutanamide” (BioSplice Therapeutics, Inc., priority 2016, dated 2024)

Experiments:
Format in all cases: physicochemical
[1] = Dynamic vapor sorption (DVS) scan; details: at 90% RH
From the text: The purity of the Form 13 sample was 98.8%; the KF of an undried Form 13 sample was 35.7%.

[2] = Form conversion on drying (XRD); details: upon drying
Description: The Form 1 solid was dried at 75° C. under vacuum overnight, and XRD, DSC, and TGA scans were performed. […] However, the DSC scans indicated the absence of endotherm. The loss of the early peak on the DSC scan had no effect on the XRD trace, showing that the endotherm between 50-100° C. on DSC scan was due to the free solvent. The purity of the Form 13 sample was 98.8%; the KF of an undried Form 13 sample was 35.7%. […] Solvates 1 and 2 solids were exposed to air overnight, and then analyzed by XRD. After the analysis, the solids were dried at 50° C. under vacuum, and then analyzed by XRD again.

[3] = Heating in DSC chamber, then XRD scan (form conversion)
Description: The Form 1 solid was heated in a DSC chamber to 305° C. (past the endotherm/exotherm around 280° C.), and then scanned by XRD. […] Thus, the endotherm/exotherm around 280° C. might be due to melting/crystallization events.
The Form 2 solid was heated in a DSC machine to 90° C. (past the endotherm between 50-100° C.); to 270° C. (past the endotherm/exotherm around 240° C.); and finally to 330° C. (past the exotherm […]). The residual solid was analyzed by XRD. […] The endotherm between 50-100° C. might be free solvent or hydrate. […] Thus, the exotherm around 290° C. was a re-crystallization event. According to an XRD and DSC overlay, the behavior of Form 2* was similar to Form 2.
Form 13 solid was heated in a DSC chamber to 170° C. (past the endotherm between 50-100° C.), and then scanned by XRD. […] It can be concluded that the endotherm between 50-100° C. is due to bonded water.
Form 13 solid was heated in a DSC chamber to 330° C. (past the endotherm/exotherm around 300° C.), and then scanned by XRD. […] It can be concluded that the endotherm/exotherm is due to melting/crystallization events.

[4] = Competitive reslurry experiments between polymorph forms (thermodynamic stability); details: water at RT and 50° C.; 3-5 days
Description: In order to find out the thermodynamic stability between the different forms, several competitive reslurry experiments were carried out. Form 1, Form 2, Form 2*, Form 3, Form 4, Form 4*, Form 4**, Form 5, Form 7, Form 8, Form 9, Form 10, Form 11, Form 11*, and Form 13 (10 mg for each) were mixed and slurried in 2 mL of solvent at both RT and 50° C. The solids were slurried for 3-5 days and then analyzed by XRD.

[5] = Competitive reslurry of Form 1, Form 9 and Form 13 (stability of Form 13 vs Form 9); details: toluene, IPAc, n-butyl acetate; 3 days at RT and 50° C.
Description: In order to find out the thermodynamic stability between Form 13 and Form 9, several competitive reslurry experiments were carried out. 15 mg of Form 1, Form 9 and Form 13 solids were mixed in 1 mL of toluene, IPAc, and n-butyl acetate, and slurried for 3 days at RT and 50° C.
The residual solid was analyzed by XRD.

[6] = Reslurry experiments in various solvents (polymorph screen)
Description: Reslurry experiments in various solvents were performed. Approximately 30-80 mg of the starting solid (a non-stoichiometric hydrate of Form 1 having between 1% and about 20% by weight water) was slurried in 39 different solvents (pure and binary solvents; the ratio of organic solvent/water (V/V) was 95%/5%) at RT and 50° C. for 5 days. Three solvates, one non-stoichiometric hydrate, and eleven non-solvated forms were identified. […] XRD of both wet and dry samples were scanned (FIG. 12A (dry sample)).

[7] = Solubility of the starting solid by the gravimetric method; details: at RT and at 50° C. in all solvents tested except DMF and DMSO
[8] = Acetontrile/water (5% water), 50° C.
[9] = Heptane/water (5% water), 50° C.
[10] = Toluene/water (5% water), 50° C.
[11] = n-Butanol/water (5% water), 50° C.
[12] = n-Butyl acetate/water (5% water), 50° C.
[13] = n-Butyl acetate/water (5% water), RT

Question: For `CC(C)CC(=O)Nc1cncc(-c2ccc3[nH]nc(-c4nc5c(-c6cccc(F)c6)cncc5[nH]4)c3c2)c1` [Form 13, N-(5-(3-(7-(3-fluorophenyl)-3H-imidazo[4,5-c]pyridin-2-yl)-1H-indazol-5-yl)pyridin-3-yl)-3-methylbutanamide], which “water absorption (DVS scan)” value [1] is on record?
Answer: The value was 17%.

Question: What about the “form change upon drying” value [2] of the same compound?
Answer: Its value is “converted to Form 1”.

Question: And the “form after heating (XRD)” value ([3]; heated in a DSC chamber to 170° C.)?
Answer: Its value is “converted to Form 1”.

Question: What about the “form after heating (XRD)” value ([3]; heated to 330° C.) of the same compound?
Answer: The value was “converted to Form 9”.

Question: What about the “thermodynamic stability in competitive reslurry” value [4] of the same compound?
Answer: Its value is “most stable”.

Question: And the “thermodynamic stability between Form 13 and Form 9” value [5]?
Answer: Its value is “difficult to tell which one was more stable”.

Question: What about the “Form; Dry” value [6, 8] of the same compound?
Answer: The value was “Form 13”.

Question: And the “Form; Wet” value [6, 8]?
Answer: Its value is “Form 13”.

Question: And the “Form; Dry” value ([6]; DCM, 50° C.)?
Answer: Its value is “Form 13”.

Question: What about the “Form; Wet” value ([6]; DCM, 50° C.) of the same compound?
Answer: Its value is “Form 13”.

Question: And the “Form; Dry” value ([6]; DCM/water (5% water), 50° C.)?
Answer: Its value is “Form 1”.

Question: What about the “Form; Wet” value ([6]; DCM/water (5% water), 50° C.) of the same compound?
Answer: Its value is “Form 13”.

Question: What about the “Form; Dry” value ([6]; DCM/water (5% water), RT) of the same compound?
Answer: The value was “Form 1”.

Question: And the “Form; Wet” value ([6]; DCM/water (5% water), RT)?
Answer: Its value is “Form 13”.

Question: What about the “Form; Dry” value ([6]; Heptane, 50° C.) of the same compound?
Answer: Its value is “Form 13”.

Question: And the “Form; Wet” value ([6]; Heptane, 50° C.)?
Answer: Its value is “Form 13”.

Question: What about the “Form; Dry” value [6, 9] of the same compound?
Answer: Its value is “Form 1”.

Question: What about the “Form; Wet” value [6, 9] of the same compound?
Answer: The value was “Form 13”.

Question: And the “Form; Dry” value ([6]; Heptane/water (5% water), RT)?
Answer: The value was “Form 12”.

Question: What about the “Form; Wet” value ([6]; Heptane/water (5% water), RT) of the same compound?
Answer: Its value is “Form 13”.

Question: And the “Form; Dry” value ([6]; IPAc/water (5% water), 50° C.)?
Answer: The value was “Form 13”.

Question: What about the “Form; Wet” value ([6]; IPAc/water (5% water), 50° C.) of the same compound?
Answer: The value was “Form 13”.

Question: What about the “Form; Dry” value ([6]; MA/water (5% water), RT) of the same compound?
Answer: Its value is “Form 1”.

Question: What about the “Form; Wet” value ([6]; MA/water (5% water), RT) of the same compound?
Answer: The value was “Form 13”.

Question: What about the “Form; Dry” value ([6]; MIBK/water (5% water), 50° C.) of the same compound?
Answer: Its value is “Form 1”.

Question: What about the “Form; Wet” value ([6]; MIBK/water (5% water), 50° C.) of the same compound?
Answer: Its value is “Form 13”.

Question: And the “Form; Dry” value ([6]; MeOH, RT)?
Answer: The value was “Form 1”.

Question: What about the “Form; Wet” value ([6]; MeOH, RT) of the same compound?
Answer: Its value is “Form 13”.

Question: What about the “Form; Dry” value ([6]; MeOH/water (5% water), 50° C.) of the same compound?
Answer: The value was “Form 13”.

Question: What about the “Form; Wet” value ([6]; MeOH/water (5% water), 50° C.) of the same compound?
Answer: Its value is “Form 13”.

Question: What about the “Form; Dry” value ([6]; MtBE/water (5% water), 50° C.) of the same compound?
Answer: The value was “Form 13”.

Question: What about the “Form; Wet” value ([6]; MtBE/water (5% water), 50° C.) of the same compound?
Answer: Its value is “Form 13”.

Question: What about the “Form; Dry” value [6, 10] of the same compound?
Answer: Its value is “Form 13”.

Question: What about the “Form; Wet” value [6, 10] of the same compound?
Answer: Its value is “Form 13”.

Question: What about the “Form; Dry” value ([6]; Toluene/water (5% water), RT) of the same compound?
Answer: Its value is “Form 1”.

Question: What about the “Form; Wet” value ([6]; Toluene/water (5% water), RT) of the same compound?
Answer: Its value is “Form 13”.

Question: What about the “Form; Dry” value [6, 11] of the same compound?
Answer: The value was “Form 1”.

Question: And the “Form; Wet” value [6, 11]?
Answer: Its value is “Form 13”.

Question: What about the “Form; Dry” value ([6]; n-Butanol/water (5% water), RT) of the same compound?
Answer: Its value is “Form 13”.

Question: And the “Form; Wet” value ([6]; n-Butanol/water (5% water), RT)?
Answer: Its value is “Form 13”.

Question: And the “Form; Dry” value [6, 12]?
Answer: The value was “Form 1”.

Question: What about the “Form; Wet” value [6, 12] of the same compound?
Answer: The value was “Form 13”.

Question: What about the “Form; Dry” value [6, 13] of the same compound?
Answer: The value was “Form 12”.

Question: What about the “Form; Wet” value [6, 13] of the same compound?
Answer: Its value is “Form 13”.

Question: And the “Form; Dry” value ([6]; water, 50° C.)?
Answer: The value was “Form 13”.

Question: What about the “Form; Wet” value ([6]; water, 50° C.) of the same compound?
Answer: The value was “Form 13”.

Question: And the “Form; Dry” value ([6]; water, RT)?
Answer: The value was “Form 1”.

Question: What about the “Form; Wet” value ([6]; water, RT) of the same compound?
Answer: Its value is “Form 13”.

Question: For `CC(C)CC(=O)Nc1cncc(-c2ccc3[nH]nc(-c4nc5c(-c6cccc(F)c6)cncc5[nH]4)c3c2)c1` [starting solid, N-(5-(3-(7-(3-fluorophenyl)-3H-imidazo[4,5-c]pyridin-2-yl)-1H-indazol-5-yl)pyridin-3-yl)-3-methylbutanamide], which “Solubility (in words)” value [7] is on record?
Answer: The value was “low solubility”.
